In patent publication US10220033B2, “Substituted benzoxazepine for cancer therapy” (University of Cape Town, priority 2014, dated 2019):

Tests used:
[1] = test system: AP-1 transcriptional activity in CaSki cells; experiment: AP-1 luciferase reporter assay; format: cell-based; conditions: 10 or 15 μM, 24 hours (FIG. 15)
Method: To assay for AP-1 and p65 luciferase activities, 40 000 CaSki cells were plated in 24-well plates, and transfected with 50 ng of an API luciferase reporter (containing four copies of the AP-1 binding site) or 50 ng of a p65 luciferase reporter (containing five copies of the p65 binding site, Clontech, CA, USA) and 5 ng pRL-TK (encoding Renilla luciferase, Promega), using 0.16 μl TransFectin™ lipid reagent (Bio-Rad, Hercules, Calif., USA). The following day cells were treated with 10 or 15 μM Compound A. Luciferase activity was measured 24 hours after Compound A treatment using the Dual-LuciferaseR Reporter assay system (Promega, Madison, Wis., USA), according to the manufacturers' instructions. Luciferase readings were measured using the Veritas™ microplate luminometer (Promega) and luciferase readings were normalised to Renilla luciferase in the same extract.

Solubility = format: physicochemical; conditions: in dimethylsulfoxide (DMSO)
WHCO6 tumours = experiment: Xenograft tumour model; format: in vivo; conditions: female nude mice, 50 mg/kg i.p. every 2-3 days for 3 weeks (FIG. 28)
Method: WHCO6 cells were harvested and resuspended in PBS. For tumour inoculation, cancer cells (5×10^6 per mouse) were s.c. implanted into the hind flanks of female nude mice. Once tumours had reached a palpable size, drug treatment was initiated, where tumour-bearing mice were randomized and dosed i.p. with either vehicle (DMSO) or Compound A (50 mg/kg), every 2-3 days for 3 weeks. Tumour volumes were measured twice a week, using calipers, and tumour volume estimated using the following formula: volume=(length×width×width)/2. Mice were sacrificed 3 weeks after the commencement of drug treatment.

CN(C)CCCn1c(N)c(-c2nc3ccccc3[nH]2)c2nc3ccccc3nc21 [Compound A, 3-(1H-benzimidazol-2-yl)-1-(3-dimethylaminopropyl)pyrrolo[5,4-b]quinoxalin-2-amine]
AP-1 luciferase activity [1]: decreased in a dose-dependent manner | solubility (Solubility): soluble | tumour growth (normalised tumour volume) (WHCO6 tumours): significantly inhibits tumour growth
